Experimental data as given in ChEMBL document CHEMBL1201862, “PubChem BioAssay data set” (2004).
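Where inhibition never reached the appropriate level, the endpoint shown equals the highest concentration tested. Otherwise, values were interpolated linearly from a five-concentration, 48-hour dose response in 96-well plates. Here, GI50 denotes the concentration required for 50% inhibition of growth.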 The source made the active and inactive calls. Rule as the data show it: active = GI50 up to about 1.1 µM and inactive = higher.

Experiments:
Assay in all cases: inhibition of tumour cell growth, NCI panel, 48 h
A549 = tested on: A549
MDA-N = tested on: MDA-N
SF-268 = tested on: SF-268
M14 = tested on: M14
LOX IMVI = tested on: LOX IMVI
BT-549 = tested on: BT-549
NCI-H460 = tested on: NCI-H460
SR = tested on: SR
EKVX = tested on: EKVX
COLO 205 = tested on: COLO 205
CAKI-1 = tested on: CAKI-1
NCI/ADR-RES = tested on: NCI/ADR-RES
DU-145 = tested on: DU-145
NCI-H226 = tested on: NCI-H226
HT-29 = tested on: HT-29
MOLT-4 = tested on: MOLT-4
DMS-273 = tested on: DMS-273
NCI-H522 = tested on: NCI-H522
UACC-257 = tested on: UACC-257
786-0 = tested on: 786-0

Measured: GI50

CN1CCN(C)C12C=c1ccccc1=CC21CC1
inactive: A549 > 91.4 µM | MDA-N 27.4 µM | SF-268 29.7 µM | M14 18.6 µM | LOX IMVI 34.6 µM | BT-549 41 µM | NCI-H460 30.8 µM | SR 25.3 µM | EKVX > 95.9 µM | COLO 205 15.7 µM | CAKI-1 74.1 µM | NCI/ADR-RES > 68.2 µM | DU-145 > 100 µM | NCI-H226 > 100 µM | HT-29 17.2 µM | MOLT-4 21.6 µM | DMS-273 57 µM | NCI-H522 24.5 µM | UACC-257 23.7 µM | 786-0 54 µM
